For ten molecules, T/C results are on record in PubChem BioAssay AID222 (DTP/NCI, 2004).

Several values for one entry are separate records, joined by “and”; a condition that tells them apart may be missing. Equal values may be shown once. Toxic doses and inconclusive results are not listed. Starred links: 1 amine or outer side, 2 acyl side, 3 side chain; linkers in the order of their positions; H or OH if unused. Positions of bridges follow the written chain, without caps; N, C: chain ends. Non-standard residues stand in square brackets, D forms with d. Residues, ends and D or L forms follow the SMILES beside them. Chains are numbered I, II in the order given. Actinocin(9to1) = Cc1c2oc3c(C)ccc(C(=O)[*:1])c3nc-2c(C(=O)[*:2])c(N)c1=O; aThr = C[C@H](O)[C@H](N)C(=O)O; NMeV = CN[C@H](C(=O)O)C(C)C; Sar = CNCC(=O)O

The subject of this assay is C57BL/6 mice, intracerebral ependymoblastoma, median survival T/C. The assay can be described thus: NCI In Vivo Anticancer Drug Screen. Data for tumor model Ependymoblastoma (intracerebral) in C57BL/6 mice. Conditions: endpoint: median survival time, higher = longer survival. The procedure: The antitumor activity of compounds was measured in mice bearing transplantable tumors. Survival or tumor size were measured and the results are expressed as the measurement made in the treated group (T) divided by the measurement made in the vehicle treated control group (C). The tumor model used in this assay is Ependymoblastoma (intracerebral) in C57BL/6 mice

Setting [1] is: dose: 32.0 mg/kg/injection, schedule: Q01DX005 (ip), vehicle: Klucel (hydroxypropylcellulose) (HPC).
The mark [2] stands for this setting: dose: 64.0 mg/kg/injection, schedule: Q01DX005 (ip), vehicle: Klucel (hydroxypropylcellulose) (HPC).

As to `NC(=S)N/N=C/c1ccc(O)cn1`, the T/C is 108 % of control (dose: 12.0 mg/kg/injection, schedule: Q01DX005 (ip), vehicle: saline); 94 % of control (dose: 24.0 mg/kg/injection, schedule: Q01DX005 (ip), vehicle: saline); 101 % of control (dose: 48.0 mg/kg/injection, schedule: Q01DX005 (ip), vehicle: saline); 104 % of control (dose: 96.0 mg/kg/injection, schedule: Q01DX005 (ip), vehicle: saline).
As for `NC(=O)N(CCCl)N=O`, the T/C runs as follows: (dose: 0.5 mg/kg/injection, schedule: Q01DX005 (ip), vehicle: saline + alcohol) 118 % of control; (dose: 2.0 mg/kg/injection, schedule: Q01DX005 (ip), vehicle: saline + alcohol) 276 % of control.
Regarding `CCC1(O)CC2CN(CCc3c([nH]c4ccccc34)C(C(=O)OC)(c3cc4c(cc3OC)N(C)C3C(O)(C(=O)NCCO)C(O)C5(CC)C=CCN6CCC43C65)C2)C1` (stereo unspecified), the T/C by setting is: (dose: 0.05 mg/kg/injection, schedule: Q01DX005 (ip), vehicle: saline) 108 % of control; (dose: 0.1 mg/kg/injection, schedule: Q01DX005 (ip), vehicle: saline) 113 % of control; (dose: 0.2 mg/kg/injection, schedule: Q01DX005 (ip), vehicle: saline) 117 % of control; (dose: 0.4 mg/kg/injection, schedule: Q01DX005 (ip), vehicle: saline) 108 % of control; (dose: 0.8 mg/kg/injection, schedule: Q01DX005 (ip), vehicle: saline) 108 % of control.
Regarding `O=C1NC(=O)C2(CCc3ccc(N(CCCl)CCCl)cc32)N1` (stereo unspecified), the T/C (dose: 0.75 mg/kg/injection, schedule: Q01DX009 (ip), vehicle: Klucel (hydroxypropylcellulose) (HPC)) was 93 % of control; the T/C (dose: 1.5 mg/kg/injection, schedule: Q01DX009 (ip), vehicle: Klucel (hydroxypropylcellulose) (HPC)) was 101 % of control; the T/C (dose: 3.0 mg/kg/injection, schedule: Q01DX009 (ip), vehicle: Klucel (hydroxypropylcellulose) (HPC)) was 115 % of control; the T/C (dose: 6.0 mg/kg/injection, schedule: Q01DX009 (ip), vehicle: Klucel (hydroxypropylcellulose) (HPC)) was 98 % of control; the T/C (dose: 6.25 mg/kg/injection, schedule: Q01DX005 (ip), vehicle: Klucel (hydroxypropylcellulose) (HPC)) was 114 % of control; the T/C (dose: 12.0 mg/kg/injection, schedule: Q01DX009 (ip), vehicle: Klucel (hydroxypropylcellulose) (HPC)) is 91 % of control. Moreover, the T/C reads like this: (dose: 12.5 mg/kg/injection, schedule: Q01DX005 (ip), vehicle: Klucel (hydroxypropylcellulose) (HPC)) 115 % of control; (dose: 25.0 mg/kg/injection, schedule: Q01DX005 (ip), vehicle: Klucel (hydroxypropylcellulose) (HPC)) 102 % of control.
As to `Cc1[nH]c(=O)[nH]c(=O)c1N(CCF)CCCl`, the T/C runs as follows: (dose: 2.0 mg/kg/injection, schedule: Q01DX005 (ip), vehicle: saline with Tween-80) 96 % of control and 104 % of control; (dose: 4.0 mg/kg/injection, schedule: Q01DX005 (ip), vehicle: saline with Tween-80) 97 % of control and 105 % of control; (dose: 4.0 mg/kg/injection, schedule: Q## X006 (ip), vehicle: Klucel (hydroxypropylcellulose) (HPC)) 111 % of control; (dose: 8.0 mg/kg/injection, schedule: Q01DX005 (ip), vehicle: saline with Tween-80) 97 % of control and 106 % of control; (dose: 8.0 mg/kg/injection, schedule: Q## X006 (ip), vehicle: Klucel (hydroxypropylcellulose) (HPC)) 106 % of control; (dose: 8.0 mg/kg/injection, schedule: Q#A X002 (ip), vehicle: Klucel (hydroxypropylcellulose) (HPC)) 101 % of control. Besides, the T/C is, setting by setting: (dose: 16.0 mg/kg/injection, schedule: Q01DX001 (ip), vehicle: Klucel (hydroxypropylcellulose) (HPC)) 93 % of control and 102 % of control; (dose: 16.0 mg/kg/injection, schedule: Q01DX005 (ip), vehicle: saline with Tween-80) 108 % of control and 109 % of control; (dose: 16.0 mg/kg/injection, schedule: Q01DX005 (oral), vehicle: Klucel (hydroxypropylcellulose) (HPC)) 111 % of control; (dose: 16.0 mg/kg/injection, schedule: Q#A X002 (ip), vehicle: Klucel (hydroxypropylcellulose) (HPC)) 99 % of control; (dose: 32.0 mg/kg/injection, schedule: Q01DX001 (ip), vehicle: Klucel (hydroxypropylcellulose) (HPC)) 92 % of control and 101 % of control and 105 % of control; (dose: 32.0 mg/kg/injection, schedule: Q01DX005 (oral), vehicle: Klucel (hydroxypropylcellulose) (HPC)) 94 % of control. Also, the T/C is, setting by setting: (dose: 32.0 mg/kg/injection, schedule: Q#A X002 (ip), vehicle: Klucel (hydroxypropylcellulose) (HPC)) 111 % of control; (dose: 64.0 mg/kg/injection, schedule: Q01DX001 (ip), vehicle: Klucel (hydroxypropylcellulose) (HPC)) 101 % of control and 114 % of control; (dose: 64.0 mg/kg/injection, schedule: Q01DX001 (oral), vehicle: Klucel (hydroxypropylcellulose) (HPC)) 96 % of control and 107 % of control and 111 % of control; (dose: 128.0 mg/kg/injection, schedule: Q01DX001 (ip), vehicle: Klucel (hydroxypropylcellulose) (HPC)) 87 % of control; (dose: 128.0 mg/kg/injection, schedule: Q01DX001 (oral), vehicle: Klucel (hydroxypropylcellulose) (HPC)) 90 % of control and 111 % of control; (dose: 256.0 mg/kg/injection, schedule: Q01DX001 (oral), vehicle: Klucel (hydroxypropylcellulose) (HPC)) 107 % of control and 86 % of control. Where the note is “dose: 512.0 mg/kg/injection, schedule: Q01DX001 (oral), vehicle: Klucel (hydroxypropylcellulose) (HPC)”, the T/C is 115 % of control.
Turning to `CC(C)=CCC1=C(O)c2ccccc2C(=O)C1=O`, the T/C is, setting by setting: under setting [1], 100 % of control; under setting [2], 94 % of control; (dose: 128.0 mg/kg/injection, schedule: Q01DX005 (ip), vehicle: Klucel (hydroxypropylcellulose) (HPC)) 97 % of control.
In the case of `O=NN(CCF)C(=O)NC1CCCCC1`, the T/C (dose: 10.0 mg/kg/injection, schedule: Q01DX005 (ip), vehicle: suspension in saline) was 123 % of control and the T/C (dose: 20.0 mg/kg/injection, schedule: Q01DX005 (ip), vehicle: suspension in saline) is 262 % of control.
As for `Cc1c2oc3c(C)ccc(C(=O)N[C@@H]4C(=O)N[C@H](C(C)C)C(=O)N5CCC[C@H]5C(=O)N(C)CC(=O)N(C)[C@@H](C(C)C)C(=O)O[C@H]4C)c3nc-2c(C(=O)N[C@@H]2C(=O)N[C@H](C(C)C)C(=O)N3CCC[C@H]3C(=O)N(C)CC(=O)N(C)[C@@H](C(C)C)C(=O)O[C@H]2C)c(N)c1=O` (I: [aThr][dV]P[Sar][NMeV] / II: [aThr][dV]P[Sar][NMeV]; ester I:1-I:C, II:1-II:C; linker I:N-II:N via Actinocin(9to1)), the T/C (dose: 12.5 micrograms/kg/injection, schedule: Q01DX005 (ip), vehicle: saline) was 116 % of control; the T/C (dose: 25.0 micrograms/kg/injection, schedule: Q01DX005 (ip), vehicle: saline) is 97 % of control; the T/C (dose: 50.0 micrograms/kg/injection, schedule: Q01DX005 (ip), vehicle: saline) was 101 % of control.
For the molecule `O=C1C(=O)c2ccccc2C(O)=C1CC=C(Cl)Cl`, the T/C was 102 % of control and 109 % of control (dose: 4.0 mg/kg/injection, schedule: Q01DX005 (ip), vehicle: Klucel (hydroxypropylcellulose) (HPC)); 100 % of control and 122 % of control (dose: 8.0 mg/kg/injection, schedule: Q01DX005 (ip), vehicle: Klucel (hydroxypropylcellulose) (HPC)); 104 % of control and 113 % of control (dose: 16.0 mg/kg/injection, schedule: Q01DX005 (ip), vehicle: Klucel (hydroxypropylcellulose) (HPC)); 107 % of control and 108 % of control under setting [1]; 101 % of control and 105 % of control under setting [2].
Consider `O=c1n(CC2CO2)c(=O)n(CC2CO2)c(=O)n1CC1CO1` (stereo unspecified), for which the T/C was 114 % of control (dose: 20.0 mg/kg/injection, schedule: Q01DX009 (ip), vehicle: saline); 114 % of control (dose: 25.0 mg/kg/injection, schedule: Q01DX009 (ip), vehicle: saline); 124 % of control (dose: 40.0 mg/kg/injection, schedule: Q01DX009 (ip), vehicle: saline); 111 % of control (dose: 50.0 mg/kg/injection, schedule: Q01DX009 (ip), vehicle: saline); 95 % of control (dose: 100.0 mg/kg/injection, schedule: Q01DX009 (ip), vehicle: saline).
